Laboratory results taken from patent US10961200B2, “Small molecule inhibitors of lactate dehydrogenase and methods of use thereof” (THE UNITED STATES OF AMERICA, AS REPRESENTED BY THE …, priority 2014, dated 2021).
Where two headings read alike, the source gives them in different places.

Biological target: Human LDHA (Homo sapiens (Human), UniProt P00338)
Test: human LDHA primary biochemical assay (resazurin/diaphorase coupled, fluorescence)
From the text: Test compounds were placed in a Greiner Bio-One (Monroe, N.C.) 1536-well black solid bottom assay plate. 200 millimolar (mM) Tris HCl, pH 7.4, 100 micromolar […] EDTA and 0.01% TWEEN-20™, final concentration, was used as the assay buffer. The LDHA reagent was 2 nanomolar (nM) Human LDHA (Meridian Life Science, Inc., Memphis, Tenn.), final concentration, in assay buffer.

[1] = read-out: Inhibitory activity IC50
[2] = LDHA inhibitory activity, assay of Example 1, activity level classes

Compound	IC50 [1] [µM]	IC50 [2] [µM]
NC(=O)c1csc(-n2nc(-c3cccc(-c4ccccc4)c3)c(Cc3ccc(S(N)(=O)=O)cc3)c2O)n1 [Compound 70, 2-(3-([1,1′-biphenyl]-3-yl)-5-hydroxy-4-(4-sulfamoylbenzyl)-1H-pyrazol-1-yl)thiazole-4-carboxamide]	> 57	
NS(=O)(=O)c1ccc(Cc2c(-c3cccc(-c4ccccc4)c3)nn(-c3nc(-c4nnn[nH]4)cs3)c2O)cc1 [Compound 72, 4-((1-(4-(1H-tetrazol-5-yl)thiazol-2-yl)-3-([1,1′-biphenyl]-3-yl)-5-hydroxy-1H-pyrazol-4-yl)methyl)benzenesulfonamide]	1 to 57	
CCOC(=O)c1csc(-n2nc(-c3cccc(-c4ccccc4)c3)c(Cc3ccc(S(N)(=O)=O)cc3)c2O)n1 [Compound 73, ethyl 2-(3-([1,1′-biphenyl]-3-yl)-5-hydroxy-4-(4-sulfamoylbenzyl)-1H-pyrazol-1-yl)thiazole-4-carboxylate]	1 to 57	
NS(=O)(=O)c1ccc(-c2cn(-c3nc(C(=O)O)cs3)nc2-c2ccccc2)cc1 [Compound 76, 2-(3-phenyl-4-(4-sulfamoylphenyl)-1H-pyrazol-1-yl)thiazole-4-carboxylic acid]	1 to 57	
CCOC(=O)c1csc(-n2nc(-c3ccccc3)c(Cc3ccc(S(N)(=O)=O)cc3)c2C(F)(F)F)n1 [Compound 77, ethyl 2-(3-phenyl-4-(4-sulfamoylbenzyl)-5-(trifluoromethyl)-1H-pyrazol-1-yl)thiazole-4-carboxylate]	1 to 57	
NC(=O)c1csc(-n2nc(-c3ccccc3)c(Cc3ccc(S(N)(=O)=O)cc3)c2I)n1 [Compound 78, 2-(5-iodo-3-phenyl-4-(4-sulfamoylbenzyl)-1H-pyrazol-1-yl)thiazole-4-carboxamide]	1 to 57	
NC(=O)c1csc(-n2cc(Cc3ccc(S(N)(=O)=O)cc3)c(-c3ccccc3)n2)n1 [Compound 79, 2-(3-phenyl-4-(4-sulfamoylbenzyl)-1H-pyrazol-1-yl)thiazole-4-carboxamide]	1 to 57	
NS(=O)(=O)c1ccc(Cc2c(-c3ccccc3)nn(-c3nc(C(=O)O)cs3)c2Nc2cccnc2)cc1 [Compound 80, 2-(3-phenyl-5-(pyridin-3-ylamino)-4-(4-sulfamoylbenzyl)-1H-pyrazol-1-yl)thiazole-4-carboxylic acid]	1 to 57	
NS(=O)(=O)c1ccc(Cc2c(-c3cccc4ccccc34)nn(-c3nc(C(=O)O)cs3)c2O)cc1 [Compound 81, 2-(5-hydroxy-3-(naphthalen-1-yl)-4-(4-sulfamoylbenzyl)-1H-pyrazol-1-yl)thiazole-4-carboxylic acid]		1 to 57
NS(=O)(=O)c1ccc(Cc2c(-c3cccnc3)nn(-c3nc(C(=O)O)cs3)c2O)cc1 [Compound 82, 2-(5-hydroxy-3-(pyridin-3-yl)-4-(4-sulfamoylbenzyl)-1H-pyrazol-1-yl)thiazole-4-carboxylic acid]		1 to 57
Nc1c(Cc2ccc(S(N)(=O)=O)cc2)c(-c2ccccc2)nn1-c1ccc(Cl)nn1 [Compound 83, 4-((5-amino-1-(6-chloropyridazin-3-yl)-3-phenyl-1H-pyrazol-4-yl)methyl)benzenesulfonamide]	1 to 57	
Cc1cccc(C(=O)n2nc(-c3ccccc3)c(Cc3ccc(S(N)(=O)=O)cc3)c2N)c1 [Compound 84, 4-((5-amino-1-(3-methylbenzoyl)-3-phenyl-1H-pyrazol-4-yl)methyl)benzenesulfonamide]	1 to 57	
Nc1c(Cc2ccc(S(N)(=O)=O)cc2)c(-c2ccccc2)nn1C(=O)c1cccc(F)c1 [Compound 85, 4-((5-amino-1-(3-fluorobenzoyl)-3-phenyl-1H-pyrazol-4-yl)methyl)benzenesulfonamide]	1 to 57	
Cc1csc(-n2nc(-c3ccccc3)c(Cc3ccc(S(N)(=O)=O)cc3)c2N)n1 [Compound 86, 4-((5-amino-1-(4-methylthiazol-2-yl)-3-phenyl-1H-pyrazol-4-yl)methyl)benzenesulfonamide]	1 to 57	
NS(=O)(=O)c1ccc(Cc2c(-c3ccccc3)nn(-c3nc(C(=O)O)cs3)c2Cc2nnn[nH]2)cc1 [Compound 87, 2-(5-((1H-tetrazol-5-yl)methyl)-3-phenyl-4-(4-sulfamoylbenzyl)-1H-pyrazol-1-yl)thiazole-4-carboxylic acid]	1 to 57	
NS(=O)(=O)c1ccc(Cc2c(-c3ccccc3)nn(-c3nc(CO)cs3)c2C(F)(F)F)cc1 [Compound 88, 4-((1-(4-(hydroxymethyl)thiazol-2-yl)-3-phenyl-5-(trifluoromethyl)-1H-pyrazol-4-yl)methyl)benzenesulfonamide]	1 to 57	
NS(=O)(=O)c1ccc(Cc2c(-c3cccc4cc(F)ccc34)nn(-c3nc(C(=O)O)cs3)c2O)cc1 [Compound 89, 2-(3-(6-fluoronaphthalen-1-yl)-5-hydroxy-4-(4-sulfamoylbenzyl)-1H-pyrazol-1-yl)thiazole-4-carboxylic acid]		> 57
NS(=O)(=O)N1CCN(Cc2cn(-c3nc(C(=O)O)cs3)nc2-c2ccccc2)CC1 [Compound 90, 2-(3-phenyl-4-((4-sulfamoylpiperazin-1-yl)methyl)-1H-pyrazol-1-yl)thiazole-4-carboxylic acid]	1 to 57	
O=C(O)c1csc(-n2nc(-c3ccccc3)cc2O)n1 [Compound 91, 2-(5-hydroxy-3-phenyl-1H-pyrazol-1-yl)thiazole-4-carboxylic acid]	> 57	
O=C(O)c1csc(-n2nc(-c3cc(F)cc(F)c3)cc2O)n1 [Compound 95, 2-(3-(3,5-difluorophenyl)-5-hydroxy-1H-pyrazol-1-yl)thiazole-4-carboxylic acid]		> 57
O=C(O)c1csc(-n2nc(-c3ccc(F)cc3F)cc2O)n1 [Compound 97, 2-(3-(2,4-difluorophenyl)-5-hydroxy-1H-pyrazol-1-yl)thiazole-4-carboxylic acid]	> 57	
CCOC(=O)OC(C)OC(=O)c1csc(-n2nc(-c3ccc(F)c(F)c3)cc2OC(C)OC(=O)OCC)n1 (stereo not shown) [Compound 98, 1-((ethoxycarbonyl)oxy)ethyl 2-(3-(3,4-difluorophenyl)-5-(1-((ethoxycarbonyl)oxy)ethoxy)-1H-pyrazol-1-yl)thiazole-4-carboxylate]		> 57
CN(C)C(=O)Oc1cc(-c2ccc(F)c(F)c2)nn1-c1nc(C(=O)Oc2ccc3c(c2)CCC3)cs1 [Compound 107, 2,3-dihydro-1H-inden-5-yl 2-(3-(3,4-difluorophenyl)-5-((dimethylcarbamoyl)oxy)-1H-pyrazol-1-yl)thiazole-4-carboxylate]		> 57

Results, then the molecule that gave them:

IC50 [1] [µM]	IC50 [2] [µM]	Compound
	> 57	O=C(O)c1csc(-n2nc(-c3ccc(F)c(F)c3)cc2C(=O)O)n1 [Compound 71, 2-(5-carboxy-3-(3,4-difluorophenyl)-1H-pyrazol-1-yl)thiazole-4-carboxylic acid]
1 to 57		N#CCc1cc(-c2ccc(F)c(F)c2)nn1-c1nc(C(=O)O)cs1 [Compound 74, 2-(5-(cyanomethyl)-3-(3,4-difluorophenyl)-1H-pyrazol-1-yl)thiazole-4-carboxylic acid]
1 to 57		O=C(O)c1csc(-n2nc(-c3ccc(F)c(F)c3)cc2Cc2nnn[nH]2)n1 [Compound 75, 2-(5-((1H-tetrazol-5-yl)methyl)-3-(3,4-difluorophenyl)-1H-pyrazol-1-yl)thiazole-4-carboxylic acid]
	> 57	CS(=O)(=O)c1cccc(-c2cc(O)n(-c3nc(C(=O)O)cs3)n2)c1 [Compound 92, 2-(5-hydroxy-3-(3-(methylsulfonyl)phenyl)-1H-pyrazol-1-yl)thiazole-4-carboxylic acid]
	> 57	O=C(O)c1csc(-n2nc(-c3cccc(N4CCOCC4)c3)cc2O)n1 [Compound 93, 2-(5-hydroxy-3-(3-morpholinophenyl)-1H-pyrazol-1-yl)thiazole-4-carboxylic acid]
	> 57	CS(=O)(=O)c1cc(-c2cc(O)n(-c3nc(C(=O)O)cs3)n2)ccc1F [Compound 94, 2-(3-(4-fluoro-3-(methylsulfonyl)phenyl)-5-hydroxy-1H-pyrazol-1-yl)thiazole-4-carboxylic acid]
	> 57	O=C(O)c1csc(-n2nc(-c3cccc(F)c3F)cc2O)n1 [Compound 96, 2-(3-(2,3-difluorophenyl)-5-hydroxy-1H-pyrazol-1-yl)thiazole-4-carboxylic acid]
	> 57	O=C(O)c1csc(-n2nc(-c3c(F)cccc3F)cc2O)n1 [Compound 100, 2-(3-(2,6-difluorophenyl)-5-hydroxy-1H-pyrazol-1-yl)thiazole-4-carboxylic acid]
	> 57	O=C(O)c1csc(-n2nc(-c3cc(F)ccc3F)cc2O)n1 [Compound 102, 2-(3-(2,5-difluorophenyl)-5-hydroxy-1H-pyrazol-1-yl)thiazole-4-carboxylic acid]
	> 57	CS(=O)(=O)Nc1cc(-c2cc(O)n(-c3nc(C(=O)O)cs3)n2)ccc1F [Compound 103, 2-(3-(4-fluoro-3-(methylsulfonamido)phenyl)-5-hydroxy-1H-pyrazol-1-yl)thiazole-4-carboxylic acid]
	> 57	O=C(O)c1csc(-n2nc(-c3ccc(F)c(Cc4ccccc4)c3)cc2O)n1 [Compound 104, 2-(3-(3-benzyl-4-fluorophenyl)-5-hydroxy-1H-pyrazol-1-yl)thiazole-4-carboxylic acid]
	> 57	CCOC(=O)OC(C)OC(=O)c1csc(-n2nc(-c3ccc(F)c(F)c3)cc2O)n1 (stereo not shown) [Compound 105, 1-((ethoxycarbonyl)oxy)ethyl 2-(3-(3,4-difluorophenyl)-5-hydroxy-1H-pyrazol-1-yl)thiazole-4-carboxylate]
	> 57	O=C(OCCN1CCOCC1)c1csc(-n2nc(-c3ccc(F)c(F)c3)cc2O)n1 [Compound 106, 2-morpholinoethyl 2-(3-(3,4-difluorophenyl)-5-hydroxy-1H-pyrazol-1-yl)thiazole-4-carboxylate]
	> 57	O=C(Oc1ccc2c(c1)CCC2)c1csc(-n2nc(-c3ccc(F)c(F)c3)cc2O)n1 [Compound 108, 2,3-dihydro-1H-inden-5-yl 2-(3-(3,4-difluorophenyl)-5-hydroxy-1H-pyrazol-1-yl)thiazole-4-carboxylate]
